Where “and” joins values, the source holds several entries; their conditions need not be identical. Identical values can stand only once.
Legend:
Assay type in all cases: in vivo, mouse
[1] = Plasma exposure after repeated s.c. administration (10 + 2 + 2 + 2 + 2 μmol/kg), LC-MS/MS; conditions: for Plasma exposure, Fig 7B, individual mice: 10µmol/kg repeated
Procedure: Assessment of plasma levels and biodistribution of mPD5.
The mPD5 plasma exposure was determined by (WuXI AppTec (Shanghai, China)) and done following s.c. injection of three male C57BL/6N (vendor: VTLH) mice (7-9 weeks old, fasted) with each concentration of mPD5 (2, 10 and 50 µmol/kg) in sterile PBS. Blood samples were taken 30 min, 1 hour, 2 hours, 5 hours, and 12 hours following injection. For the repeated administration experiment, the initial s.c. injection of 10 µmol/kg was followed by 4 s.c. administrations of 2 µmol/kg with one hour between injections. Following the last injection, blood samples (0.03 mL from saphenous vein or other suitable site) were collected in EDTA- […]
K2 tubes at 5 min, 30 min, 1 hour, 5 hours, 12 hours, 24 hours, and 48 hours and centrifuged (app 4 ℃, 3200 g, 10 min) for collection of plasma. Plasma was transferred to 96 well plates and quick-frozen over dry ice and kept at -60 ℃ until LC-MS/MS analysis. For LC-MS/MS analysis plasma with 0.25% Triton X100 in 50% MeOH/water (6 µL) was quenched with 160 µL of IS1 (internal standard in MeOH (Labetalol & tolbutamide & Verapamil & dexamethasone & glyburide & Celecoxib 100 ng/mL for each)) and the mixture was vortexed for 10 min at 800 rpm and centrifuged for 15 min at 3220 × g at 4 ℃. An aliquot of 65 µL supernatant was transferred to a clean 96-well plate and centrifuged for 5 min at 3220 × g at 4 ℃, then the supernatant was directly injected for LC-MS/MS analysis. Plasma half-lives were determined from three points in the elimination phase. […]

[2] = tested on: mice, CFA model of inflammatory pain; assay: CFA model, elevated plus maze
[3] = tested on: mice, spared nerve injury (SNI) model; assay: SNI model of neuropathic pain, von Frey, single s.c. dose, male mice day 7
Procedure: Induction of neuropathic pain (SNI model).
The initial SNI pain experiment (Figure 4A) was performed by Phenotype Expertise, Marseilles, France – Pain and CNS behaviour CRO under supervision of Stéphane Gaillard, PhD (CEO). Surgery was performed on 8-week-old C57BL/6J male mice (Charles River). The spared nerve injury surgery was performed on anaesthetized mice with a buprenorphine […]
solution (0.05 mg/kg) injected s.c. 30 min before surgery (10 μL/g). For surgery, mice were anaesthetised with ketamine (100 mg/kg, i.p.) and xylazine (10 mg/kg, i.p.) (volume 10 µL/g) with 100 μL of 1% xylocaine solution infiltrated at the site of the incision. The distal trifurcation of the sciatic nerve was identified, and the tibial and common peroneal branches were ligated with polypropylene nonabsorbable 6-0 sutures (Ethicon) and 1 mm was cut out, leaving the sural branch intact. The wound was closed with sutures, and the animals were allowed to recover and returned to their cages. Two subcutaneous injections of buprenorphine (0.05 mg/kg) were performed with an 8 to 12 hours delay decreasing pain due to the surgery […]
The remaining SNI pain experiments were performed in-house using the following procedure.
SNI surgery was performed on the left hindleg of C57BL/6J male and female mice (Janvier, France) under 2% isoflurane anaesthesia. Skin on the lateral surface was incised between hip and knee followed by lengthwise division of the biceps femoris muscle leading to exposure of the three branches of the sciatic nerve. Sural branch was left intact, while the peroneal and tibial branches were ligated with a single surgical knot and axotomized distally of the ligation.
Wounds were closed with surgical glue or medical clips and animals were monitored daily for signs of stress or discomfort, but in all cases recovered uneventfully.
Induction of Diabetic neuropathy (STZ model).
Diabetes was induced by a single i.p. injection of […] streptozocin (STZ) solution (100 μL/10 g, Sigma-Aldrich S0130, batch #WXBB7152V) in male seven-week-old C57BL/6J (Charles River) mice. Glycemia was tested before, and seven days after injection. All injected mice had blood glucose concentration >350 mg/dL from day seven and were used for analgesic testing of the compounds from day 14. One mouse had to be euthanized at seven days post injection. This experiment was performed by Phenotype Expertise, Marseilles, France - Pain and CNS behaviour CRO under supervision of Stéphane Gaillard, PhD (CEO).
Induction of cancer induced bone pain (CIBP model).
Osteosarcoma cell line NCTC 2472 (American Type Culture Collection, CCL-11TM) was cultured for two weeks prior to surgery in NCTC-135 medium (Sigma-Aldrich, Denmark) supplemented with sodium hydrogen carbonate and 10% equine serum (Sigma-Aldrich, Denmark). On the day of surgery, cells were washed with PBS and incubated with 3 mL trypsin-EDTA for five min followed by centrifugation (2800 rpm, 3 min). Supernatant was removed, and cell pellet resuspended in PBS to obtain a cell density of 10^7 cells/mL.
Two separate cohorts of female C3H/HeNHsd mice (Envigo, Netherlands) of 7-8 weeks, were anaesthetized with 6.25 mg/kg xylazine (Rompun vet, 20 mg/mL, Bayer, KVP Pharma + Veterinär Produkte GmbH, Germany, Batch: KV02BHF) and 43.75 mg/kg ketamine (Ketaminol vet, 100 mg/mL, MSD Animal Health, AN Boxmeer, The Netherlands, Batch:
A140A01) and received 1.0-1.2% isoflurane (1000 mg/g isoflurane, Attane vet, ScanVet, Piramal Critical Care Ltd., UK, Batch: G123J18B) during surgery. The mouse was placed on a 37 °C heating pad. Both hind legs were shaved, and a small horizontal incision was made under the knee followed by a vertical incision of approximately 0.5 cm until the patellar tendon was exposed. The patellar tendon was moved to the lateral side exposing the distal epiphysis of the femur. A hole was made in the middle of the distal epiphysis by gently pushing a 30 G needle (0.3x12 mm, 30 Gx1/2”, Luer-Lock, CHIRANA T. Injecta, CH30012) through the bone […]
while rotating. […]

CCCCCCCCCCCCCC(=O)N(CCOCCOCCC(=O)N[C@@H](Cc1c[nH]cn1)C(=O)N[C@@H](Cc1c[nH]c2ccccc12)C(=O)N[C@@H](CC(C)C)C(=O)N[C@@H](CCCCN)C(=O)N[C@H](C(=O)O)C(C)C)CCOCCOCCC(=O)N[C@@H](Cc1c[nH]cn1)C(=O)N[C@@H](Cc1c[nH]c2ccccc12)C(=O)N[C@@H](CC(C)C)C(=O)N[C@@H](CCCCN)C(=O)N[C@H](C(=O)O)C(C)C [mPD5, myristoyl-NPEG4-(HWLKV)2]
Plasma exposure, Fig 7B, individual mice ([1]; time 0.5): 3149 and 2827 and 2358
Plasma exposure, Fig 7B, individual mice ([1]; time 1): 3071 and 3116 and 2251
Plasma exposure, Fig 7B, individual mice ([1]; time 5): 8.66 and 8.95 and 4.61
half-life ([1]; C57BL/6N, mouse, plasma, sc, s.c. 10 μmol/kg followed by 4 x 2 μmol/kg in 1-hour intervals): 31.2 ± 1.2 min
time spent in open arms relative to sham, individual mice ([2]; 1 hour after s.c. 10 μmol/kg): 105.738 and 52.6613 and 140.768 and 68.9703 and 55.3027 and 160.227 and 143.859 and 0 and 156.14 and 28.0701 and 63.1578
time spent in the open arms of the elevated plus maze ([2]; s.c. 10 μmol/kg): no longer significantly different from the naive mice
effect on mechanical hypersensitivity (PWT) ([3]; SNI day 7, male mice, s.c. 2 μmol/kg): no significant effect
duration of significant reduction of mechanical hypersensitivity ([3]; SNI day 7, male mice, s.c. 10 μmol/kg): up to 3 hours
von Frey paw withdrawal threshold, individual animals (Fig 5B) ([3]; dose group 2, contra, BL): 2 and 1.4 (4×) and 1
von Frey paw withdrawal threshold, individual animals (Fig 5B) ([3]; dose group 2, contra, time 0): 1.4 (2×) and 1 (4×)
von Frey paw withdrawal threshold, individual animals (Fig 5B) ([3]; dose group 2, contra, time 1): 1
von Frey paw withdrawal threshold, individual animals (Fig 5B) ([3]; dose group 2, injured side, BL): 2 (2×) and 1.4 (4×)
von Frey paw withdrawal threshold, individual animals (Fig 5B) ([3]; dose group 2, injured side, time 0): 0.07 (2×) and 0.16 (3×) and 0.4
von Frey paw withdrawal threshold, individual animals (Fig 5B) ([3]; dose group 2, injured side, time 1): 0.6 (2×) and 1 (3×) and 1.4
von Frey paw withdrawal threshold, individual animals (Fig 5B) ([3]; dose group 10, contra, BL): 1.4 (5×) and 1
von Frey paw withdrawal threshold, individual animals (Fig 5B) ([3]; dose group 10, contra, time 0): 1 (4×) and 1.4 (2×)
von Frey paw withdrawal threshold, individual animals (Fig 5B) ([3]; dose group 10, contra, time 1): 1 (3×) and 1.4 (3×)
von Frey paw withdrawal threshold, individual animals (Fig 5B) ([3]; dose group 10, injured side, BL): 1.4 (5×) and 1
von Frey paw withdrawal threshold, individual animals (Fig 5B) ([3]; dose group 10, injured side, time 0): 0.16 (2×) and 0.07 (3×) and 0.4
von Frey paw withdrawal threshold, individual animals (Fig 5B) ([3]; dose group 10, injured side, time 1): 1.4 (2×) and 1
von Frey paw withdrawal threshold, individual animals (Fig 5B) ([3]; dose group 50, contra, BL): 1.4 (4×) and 1 (2×)
von Frey paw withdrawal threshold, individual animals (Fig 5B) ([3]; dose group 50, contra, time 0): 1.4 (3×) and 1 (3×)
von Frey paw withdrawal threshold, individual animals (Fig 5B) ([3]; dose group 50, contra, time 1): 1.4 (4×) and 1 (2×)
von Frey paw withdrawal threshold, individual animals (Fig 5B) ([3]; dose group 50, injured side, BL): 1.4 (5×) and 1
von Frey paw withdrawal threshold, individual animals (Fig 5B) ([3]; dose group 50, injured side, time 0): 0.07 (2×) and 0.16 (2×) and 0.4 (2×)
von Frey paw withdrawal threshold, individual animals (Fig 5B) ([3]; dose group 50, injured side, time 1): 1 (3×) and 1.4 (2×) and 2
